The values that follow come from paper PMC8617031, “Development of a BCL-xL and BCL-2 dual degrader with improved anti-leukemic activity,” (Nature Communications, 2021).

“And” between values parts separate entries of the source, which are not always exact repeats. Identical values can stand only once.

In one assay the target is T1, BCL-2 (Homo sapiens, UniProt P10415).
T1 construct: endogenous in cells
The experiment in a line: BCL-2 degradation by immunoblot in Kasumi-1 cells. In kind it is cell-based. The note with it: Fig. 7b; for BCL-2 level, bar graph (0 = 100): two replicate columns. The method, then:
Tubulin was used as an equal loading control. […] For the viability assays, the data are presented as mean ± s.d. from three replicate cell cultures in a representative experiment. Similar results were also observed in two additional independent experiments. d Representative immunoblot analyses of Kasumi-1 cells 16 h after treatment as indicated. […] Data are representative of two independent experiments. The dotted line represents the value from DMSO-treated cells. Source data are provided as a Source data file.
(§1) Cells were collected, washed once with ice-cold phosphate-buffered saline, pH 7.2 (PBS, cat. no. 20012027; Thermo Fisher Scientific) and lysed in RIPA lysis buffer (Cat. No. BP-115DG, Boston Bio Products, Ashland, MA, USA) supplemented with protease and phosphatase inhibitor cocktails (Cat. No. PPC1010, Sigma-Aldrich, St. Louis, MO, USA) through sonication. The samples were centrifuged at 14,000 r.p.m. for 5 min and the supernatants were transferred into a new tube. The protein concentration in the supernatants was determined using the Pierce BCA protein Assay kit (cat. no. 23225, Thermo Fisher Scientific). The protein concentration was normalized, and the samples were reduced in 4× Laemmli’s SDS-sample buffer (cat. no. BP-110R, Boston Bio Products) and denatured at 95 °C for 5 min. An equal amount of protein samples (20–40 μg per lane) were resolved using precast 4–20% Tris-glycine gels (Mini-PROTEAN TGX, cat. no. 456–1094, Bio-Rad), and resolved proteins were transferred onto 0.2-µm pore size polyvinylidene difluoride (PVDF) blotting membranes (cat. no. LC2002, Thermo Fisher Scientific) using mini trans-blot electrophoretic transfer cell (Bio-Rad). The membranes were blocked with non-fat dry milk (5% wt/vol) in 1× Tris-buffered saline-Tween-20 (TBST, cat. no. J77500, Affymetrix) for 1 h at room temperature, and were subsequently probed with primary antibodies at a predetermined optimal concentration in non-fat dry milk (5% wt/vol in TBST) overnight at 4 °C. The membranes were washed three times (5 min each) in TBST and then incubated with horse radish peroxidase (HRP)-conjugated secondary antibodies for 1 h at room temperature. Following sufficient washing with TBST, the membranes were exposed with chemiluminescent HRP substrate (cat. no. WBKLS0500, MilliporeSigma), and the signal was detected using the ChemiDoc MP Imaging System (Bio-Rad) and quantified using the ImageJ (v1.53a) software from NIH.
For orientation: In western blotting, separated proteins are transferred to a membrane and probed.

Assay [1] relates to Flag-BCL-xL (WT and lysine mutants). As to the kind of experiment: Degradation of Flag-BCL-xL WT and lysine mutants in transfected 293T cells. In kind it is cell-based, human. The note with it: DMSO = 100. As to the method:
as §1
Plasmids were purified on miniprep columns according to the manufacturer’s protocol (Cat. No. 27106 Qiagen, Germantown, MD, USA). The construction of Flag-BCL-xL (pDL2009) and Flag-BCL-xL-K-ko (pDL2129) were described previously. Flag-BCL-2 was a gift from Clark Distelhorst (Addgene plasmid # 18003, Watertown, MA, USA). Plasmids Flag-BCL-xL-K16-only, Flag-BCL-xL-K20-only, Flag-BCL-xL-K157-only, Flag-BCL-xL-K-ko-R34K, Flag-BCL-xL-K-ko-R102K, Flag-BCL-xL-K-ko-R132K, Flag-BCL-xL-K-ko-G186K, Flag-BCL-2-K17R, Flag-BCL-2-K22R, and Flag-BCL-2-K17/22R were constructed by using Q5® Site-Directed Mutagenesis Kit (Cat. No. E0554S, NEB, Ipswich, MA, USA) and the following primer sets. Flag-BCL-xL-K-ko (pDL2129) or Flag-BCL-2 was used as the template. Flag-BCL-xL-K16-only: forward (5′-[…]a[…]-3′) and reverse (5′-[…]-3′); Flag-BCL-xL-K20-only: forward (5′-[…]a[…]-3′) and reverse (5′-[…]-3′); Flag-BCL-xL-K157-only: forward (5′-[…]a[…]-3′) and reverse (5′-[…]-3′); Flag-BCL-xL-R34K: forward (5′-[…]a[…]-3′) and reverse (5′-[…]-3′); Flag-BCL-xL-R102K: forward (5′-[…]aa[…]-3′) and reverse (5′-[…]-3′); Flag-BCL-xL-R132K: forward (5′-[…]aa[…]-3′) and reverse (5′-[…]-3′); Flag-BCL-xL-G186K: forward (5′-[…]aa[…]-3′) and reverse (5′-[…]-3′); Flag-BCL-2-K17R: forward (5′-[…]g[…]-3′) and reverse (5′-[…]-3′); Flag-BCL-2-K22R: forward (5′-[…]g[…]-3′) and reverse (5′-[…]-3′); Flag-BCL-2-K17/22R: forward (5′-cattatag[…]-3′) and reverse (5′-gatgtacc[…]-3′). DNA sequences in all these plasmids were authenticated by automatic sequencing. […] The cells were harvested using RIPA lysis buffer containing protease and phosphatase inhibitor as mentioned above. The primers used in this study are also listed in Supplementary Table 1.

T1 sequence (P10415 whole entry): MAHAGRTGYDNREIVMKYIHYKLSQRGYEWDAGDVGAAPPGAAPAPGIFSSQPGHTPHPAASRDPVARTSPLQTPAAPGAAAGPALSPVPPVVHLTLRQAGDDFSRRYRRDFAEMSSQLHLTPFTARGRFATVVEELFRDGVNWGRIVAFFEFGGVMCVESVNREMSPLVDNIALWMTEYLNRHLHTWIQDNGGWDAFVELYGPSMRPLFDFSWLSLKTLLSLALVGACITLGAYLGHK

For `Cc1ncsc1-c1ccc([C@H](C)NC(=O)[C@@H]2C[C@@H](O)CN2C(=O)[C@@H](NC(=O)CCCCCCC(=O)N2CCN(C[C@]3(C)CCC(c4ccc(Cl)cc4)=C(CN4CCN(c5ccc(C(=O)NS(=O)(=O)c6ccc(N[C@H](CCN7CCOCC7)CSc7ccccc7)c(S(=O)(=O)C(F)(F)F)c6)cc5)CC4)C3)CC2)C(C)(C)C)cc1` [753b], the “BCL-2 degradation in Kasumi-1 cells (in words)” value at BCL-2 (Kasumi-1 cells, 16 h) is recorded as “could also degrade BCL-2”. The “BCL-2 level, bar graph (0 = 100)” value is 66 and 60 at BCL-2 (concentration 0.01); 44 and 48 on BCL-2 (concentration 0.03); 36 and 21 at BCL-2 (concentration 0.1); 32 and 26 on BCL-2 (concentration 0.3); 36 and 25 at BCL-2 (concentration 1). Also, the “relative Flag-BCL-xL protein content” value in assay [1] (K16-only mutant, 753b-treated 293T, Fig. 5a) was 86 and 85 and 66; in assay [1] (K20-only mutant, 753b-treated 293T, Fig. 5a), 29 and 42 and 46; in assay [1] (WT Flag-BCL-xL, 753b-treated 293T, Fig. 5a, 3 replicates) it was 34 and 30 and 42.
For `Cc1ncsc1-c1ccc([C@H](C)NC(=O)[C@@H]2C[C@@H](O)CN2C(=O)[C@@H](NC(=O)CCCCCC(=O)N2CCN(CC[C@H](CSc3ccccc3)Nc3ccc(S(=O)(=O)NC(=O)c4ccc(N5CCN(CC6=C(c7ccc(Cl)cc7)CCC(C)(C)C6)CC5)cc4)cc3S(=O)(=O)C(F)(F)F)CC2)C(C)(C)C)cc1` [DT2216], the “BCL-2 level, bar graph (0 = 100)” value on BCL-2 (concentration 0.01) was 96 and 105; at BCL-2 (concentration 0.03) it was 90 and 102; on BCL-2 (concentration 0.1) it was 92 and 98; on BCL-2 (concentration 0.3), 91 and 99; at BCL-2 (concentration 1), 80 and 89. Besides, the “relative Flag-BCL-xL protein content” value in assay [1] (K157-only mutant, DT2216-treated 293T, Fig. 1f) is 91 and 97 and 105; in assay [1] (K-ko mutant, DT2216-treated 293T, Fig. 1f), 95 and 102 and 90; in assay [1] (K-ko-G186K mutant, DT2216-treated 293T, Fig. 1f) it was 81 and 88 and 95; in assay [1] (K-ko-R34K mutant, DT2216-treated 293T, Fig. 1f) it was 50 and 41 and 44; in assay [1] (K-ko-R102K mutant, DT2216-treated 293T, Fig. 1f), 64 and 57 and 51; in assay [1] (K-ko-R132K mutant, DT2216-treated 293T, Fig. 1f), 55 and 50 and 58. Also, in assay [1] (WT Flag-BCL-xL, DT2216-treated 293T, Fig. 1f, 3 replicates), the “relative Flag-BCL-xL protein content” value is 7 and 33 and 22.
